{"source": "paper doi:10.1101/2024.07.29.605666v2", "about": "“Effects of two different compounds on seizure suppression using the zebrafish PTZ-seizure model” (bioRxiv, 2024)", "format_in_all_cases": "in vivo, zebrafish (Danio rerio)", "key": {"bcl2a": {"system": "bcl2a", "assay": "RT-qPCR of bcl2a transcript in larval heads after PTZ-induced seizures", "conditions": "tripeptide 10 μg/mL 24 h, then 15 mM PTZ 20 min; no statistical difference detected; n = 5", "procedure": "(§1) For all compounds, zebrafish larvae at 6 days post-fertilization (dpf) were randomly placed into Petri dishes, each one containing 25 larvae. The larvae were incubated in the respective solutions and concentrations for 24h (as specified in Table 1) prior to seizure induction. The temperature and photoperiod conditions were consistent with those described for the adult zebrafish. The study groups consisted of the Control Group (CG), PTZ Group (PTZ), Treatment 1, Treatment 2, and Treatment 3. Treatments 1 to 3 employed the previously determined concentrations mentioned above.\n(§2) Seizure induction followed the pretreatment of the compounds. […]\n(§3) Immediately after PTZ exposure, fish were cryo-anesthetized and their heads were cut, collected, and then incubated in TRIzol® (Invitrogen, Carlsbad, CA, USA). […] The concentration and quality were determined using the Epoch™ spectrophotometer (BioTek, Winooski, VT, USA) and gel electrophoresis.\n(§4) The synthesis of cDNA was carried out using the High-Capacity cDNA Reverse Transcription kit (Applied Biosystems™, Califórnia, USA) following the manufacturer’s instructions. Quantitative PCR (qPCR) was performed using the SYBR ® Green Master Mix reagent (Bio-Rad) using the ABI 7500 system (Applied Biosystems, Foster City, CA, USA). […] Data were evaluated using 7500 software v2.03 (Applied Biosystems). […]"}, "il1b": {"system": "il1b", "assay": "RT-qPCR of il1b transcript in larval heads after PTZ-induced seizures", "conditions": "tripeptide 24 h, then 15 mM PTZ 20 min; significant effects at 10 and 5 μg/mL; n = 5 pools of five heads; vs PTZ group", "procedure": "as §1, §2, §3, §4"}, "baxa": {"system": "baxa", "assay": "RT-qPCR of baxa transcript in larval heads after PTZ-induced seizures", "conditions": "tripeptide 10 μg/mL 24 h, then 15 mM PTZ 20 min; no statistical difference detected; n = 5", "procedure": "as §1, §2, §3, §4"}, "casp9": {"system": "casp9", "assay": "RT-qPCR of casp9 transcript in larval heads after PTZ-induced seizures", "conditions": "tripeptide 24 h, then 15 mM PTZ 20 min; significant effects at 10 and 5 μg/mL; n = 5 pools of five heads; vs PTZ group", "procedure": "as §1, §2, §3, §4"}, "casp3a": {"system": "casp3a", "assay": "RT-qPCR of casp3a transcript in larval heads after PTZ-induced seizures", "conditions": "tripeptide 10 μg/mL 24 h, then 15 mM PTZ 20 min; no statistical difference detected; n = 5", "procedure": "as §1, §2, §3, §4"}, "zebrafish larvae": {"system": "zebrafish larvae", "assay": "PTZ-induced seizure behaviour (latency and number of seizures) after 24 h compound pretreatment", "conditions": "tripeptide 25, 10 and 5 μg/mL, 24 h pretreatment, then 15 mM PTZ, 10 min visual observation; vs PTZ group", "procedure": "as §1\nSeizure induction followed the pretreatment of the compounds. Larvae with 7 dpf were carefully transferred to a 96-well plate filled with 100 μL of aquarium water, with one larva per well. Subsequently, 100 μL of 30 mM of the proconvulsant agent pentylenetetrazol (PTZ) (Sigma-Aldrich, St. Louis, MO, USA) was added to each well, resulting in a final concentration of 15 mM of PTZ. The larvae were exposed to PTZ for 20 minutes. The control group underwent the same procedure but in PTZ-free water.\nThe latency and number of seizures were monitored through visual observation, following the method described by Barbalho et al., 2016a. […] Larvae were evaluated for 10 minutes of PTZ exposure, and a complete seizure was considered when they reached stage 3."}}}
{"substance": "Glu-Val-Trp [Tripeptide]", "values": [{"measurement": "bcl2a gene expression (RQ = 2-ΔΔCT)", "setting": "bcl2a", "result": "roughly equivalent to or slightly higher than those of the PTZ group"}, {"measurement": "il1b gene expression (RQ = 2-ΔΔCT)", "setting": "il1b", "result": "downregulation"}, {"measurement": "baxa gene expression (RQ = 2-ΔΔCT)", "setting": "baxa", "result": "roughly equivalent to or slightly higher than those of the PTZ group"}, {"measurement": "casp9 gene expression (RQ = 2-ΔΔCT)", "setting": "casp9", "result": "downregulation"}, {"measurement": "casp3a gene expression (RQ = 2-ΔΔCT)", "setting": "casp3a", "result": "roughly equivalent to or slightly higher than those of the PTZ group"}, {"measurement": "number of seizures", "setting": "zebrafish larvae", "result": "No statistical significance was found"}, {"measurement": "seizure latency (time to stage 3 seizure-like activity)", "setting": "zebrafish larvae", "result": "No statistical significance was found"}]}
